Assay results published in US11634607B2, “Compositions for containers and other articles and methods of using same” (SWIMC LLC, priority 2011, dated 2023).

Test system: MCF-7, clone WS8, cells
Assay: MCF-7 cell proliferation assay of estrogenic activity
Type: cell-based, human
Conditions: logarithmic (base 10) Relative Proliferative Effect vs 17-beta estradiol; 'expected or measured' values, not told apart
Source text: The MCF-7 assay uses MCF-7, clone WS8, cells to measure whether and to what extent a substance induces cell proliferation via estrogen receptor (ER)-mediated pathways. The method is described in “Test Method Nomination: MCF-7 Cell Proliferation Assay of Estrogenic Activity” submitted for validation by CertiChem, Inc. to the National Toxicology Program Interagency Center for the Evaluation of Alternative Toxicological Methods (NICEATM) on Jan. 19, 2006 (available online at http://iccvam.niehs.nih.gov/methods/endocrine/endodocs/SubmDoc.pdf).
A brief summary of the method of the aforementioned MCF-7 assay is provided below. MCF-7, clone WS8, cells are maintained at 37° C. in RMPI (or Roswell Park Memorial Institute medium) containing Phenol Red (e.g., GIBCO Catalog Number 11875119) and supplemented with the indicated additives for routine culture. An aliquot of cells maintained at 37° C. are grown for 2 days in phenol-free media containing 5% charcoal stripped fetal bovine serum in a 25 cm^2 tissue culture flask. Using a robotic dispenser such as an epMotion 5070 unit, MCF-7 cells are then seeded at 400 cells per well in 0.2 ml of hormone-free culture medium in Corning 96-well plates. The cells are adapted for 3 days in the hormone-free culture medium prior to adding the chemical to be assayed for estrogenic activity. The media containing the test chemical is replaced daily for 6 days. At the end of the 7-day exposure to the test chemical, the media is removed, the wells are washed once with 0.2 ml of HBSS (Hanks' Balanced Salt Solution), and then assayed to quantify amounts of DNA per well using a micro-plate modification of the Burton diphenylamine (DPA) assay, which is used to calculate the level of cell proliferation.
RPE is the ratio between the EC50 of the test chemical and the EC50 of the control substance 17-beta estradiol times 100, where EC50 is “effective concentration 50%” or half-maximum stimulation concentration for cell proliferation measured as total DNA in the MCF-7 assay.

O=S(=O)(c1ccc(O)cc1)c1ccc(O)cc1 [Bisphenol S] was tested, and the “Log RPE” value was −2.

With Oc1ccc(Cc2ccc(O)cc2)cc1 [Bisphenol F] the “Log RPE” value was −2.

For C[C@]12CC[C@@H]3c4ccc(O)cc4CC[C@H]3[C@@H]1CC[C@@H]2O [17β-estradiol], the “Log RPE” value was 2.00.
